Experimental data from patent US20250197387A1, “BCL-XL DEGRADERS AND USES THEREOF” (Kymera Therapeutics, Inc., priority 2021, published 2025).
Read-outs that look alike come from different tables or passages of the source.

Columns and labels:
Assay type in all cases: cell-based
BCL-XL = target: T1, BCL-XL (Homo sapiens, UniProt Q07817); assay: Bcl-xL ELISA degradation in MOLT-4 cells, 6 h; details: for DC50: read-out: Bcl-xL ELISA in MOLT-4 degradation 6 h: Mean external-Abs DC50
T1 construct: endogenous in cells; host or cells: MOLT-4
T1 sequence (Q07817 whole entry): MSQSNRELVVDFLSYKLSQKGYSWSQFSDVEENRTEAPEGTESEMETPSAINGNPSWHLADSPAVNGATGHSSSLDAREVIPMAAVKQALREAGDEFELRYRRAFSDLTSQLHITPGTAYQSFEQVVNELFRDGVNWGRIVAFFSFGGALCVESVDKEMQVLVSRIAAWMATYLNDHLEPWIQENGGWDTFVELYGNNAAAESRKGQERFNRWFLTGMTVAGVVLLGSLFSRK
Method: The letter codes for BCL-XL DC50 include: A (<0.01 μM); B (0.01-0.1 μM); C (>[…]); D (>0.5-1.0 μM); and E (>1.0 μM). The letter codes for Dmax % include A (>75%); B (50 to 75%); C (<50%).

Caki-2 cells = assay: CTG (CellTiter-Glo) cell viability assay, Caki-2; details: Homo sapiens, 72 h, 3 day incubation, read-out: CTG Chempartner - Caki-2 3 day: Average external-IC50
How it was run: (§1)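 Luminescence from CellTiter-Glo, read after 3 days of compound exposure at 37 °C, gave viability; IC50 values came from three-parameter logistic curves. Cells were plated at 10,000 per well and dosed over nine 1:3 steps topping at 10 μM.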

MOLT-4 cells = assay: CTG (CellTiter-Glo) cell viability assay, MOLT-4; details: Homo sapiens, 3 day incubation, read-out: CTG Cell Viability Assay - MOLT-4 3 day: Average external-IC50
How it was run: as §1

Row | Structure (SMILES) | Dmax (BCL-XL) [%] | DC50 (BCL-XL) [nM] | IC50 (Caki-2 cells) [nM] | IC50 (MOLT-4 cells; MOLT-4, 72 h) [nM] | IC50 (MOLT-4 cells; 72 h) [nM]
1 | Cc1ncsc1-c1ccc(CNC(=O)[C@@H]2C[C@@H](O)CN2C(=O)[C@@H](NC(=O)CCCCCS(=O)(=O)NC(=O)c2nc(N3CCc4cccc(C(=O)Nc5nc6cccnc6s5)c4C3)ccc2-c2cnn(CC(C)(C)C)c2C)C(C)(C)C)cc1 [I-467] | > 75 | 100 to 500 | > 10000 | 1000 to 3000 | 
2 | C#Cc1ccc(CNC(=O)[C@@H]2C[C@@H](O)CN2C(=O)[C@@H](NC(=O)CCCCCS(=O)(=O)NC(=O)c2nc(N3CCc4cccc(C(=O)Nc5nc6ccccc6s5)c4C3)ccc2-c2cnn(CC3CCCCC3)c2C)C(C)(C)CCO)cc1 [I-354] | > 75 | < 10 | > 10000 | < 100 | 
3 | Cc1ncsc1-c1ccc(CNC(=O)[C@@H]2C[C@@H](O)CN2C(=O)[C@@H](NC(=O)C2(F)CC2)C(C)(C)C)c(OCCN2CCN(CC[C@H](CSc3ccccc3)Nc3ccc(S(=O)(=O)NC(=O)c4ccc(N5CC6(CC(N7CCC[C@H]7c7ccccc7C7CC7)C6)C5)cc4)cc3S(=O)(=O)C(F)(F)F)CC2)c1 [I-400] | > 75 | 10 to 100 | > 10000 | 100 to 1000 | 
4 | Cc1ncsc1-c1ccc([C@H](C)NC(=O)[C@@H]2C[C@@H](O)CN2C(=O)[C@@H](NC(=O)CN2CCC(CS(=O)(=O)NC(=O)c3nc(N4CCc5cccc(C(=O)Nc6nc7ccccc7s6)c5C4)ccc3-c3cnn(CC4CCCCC4)c3C)CC2)C(C)(C)C)cc1 [I-335] | > 75 | < 10 | 1000 to 10000 |  | < 100
5 | Cc1ncsc1-c1ccc([C@H](C)NC(=O)[C@@H]2C[C@@H](O)CN2C(=O)[C@@H](NC(=O)c2ccc(N3CCC(S(=O)(=O)NC(=O)c4nc(N5CCc6cccc(C(=O)Nc7nc8ccccc8s7)c6C5)ccc4-c4cnn(CC5CCCCC5)c4C)CC3)cc2)C(C)(C)C)cc1 [I-303] | > 75 | 100 to 500 | 1000 to 10000 | 100 to 1000 | 
6 | Cc1cc(N(C)c2ccc(-c3cnn(CC45CC6CC(CC(C6)C4)C5)c3C)c(C(=O)NS(=O)(=O)CCN(C)CCC(=O)N[C@H](C(=O)N3C[C@H](O)C[C@H]3C(=O)N[C@@H](C)c3ccc(-c4scnc4C)cc3)C(C)(C)C)n2)nnc1Nc1nc2ccccc2s1 [I-428] | > 75 | 10 to 100 | > 10000 | < 100 | 
7 | Cc1ncsc1-c1ccc(CNC(=O)[C@@H]2C[C@@H](O)CN2C(=O)[C@@H](NC(=O)CCc2ccc(S(=O)(=O)NC(=O)c3nc(N4CCc5cccc(C(=O)Nc6nc7ccccc7s6)c5C4)ccc3-c3cnn(CC4CCCCC4)c3C)cn2)C(C)(C)C)cc1 [I-342] | > 75 | 100 to 500 | > 10000 | 100 to 1000 | 
8 | C#Cc1ccc([C@H](CO)NC(=O)[C@@H]2C[C@@H](O)CN2C(=O)[C@@H](NC(=O)CCNCCS(=O)(=O)NC(=O)c2nc(N3CCc4cccc(C(=O)Nc5nc6cccnc6s5)c4C3)ccc2-c2cnn(CC(C)C)c2C)C(C)(C)C)cc1 [I-414] | 50 to 75 | > 1000 | > 10000 | > 3000 | 
9 | Cc1ncsc1-c1ccc(CNC(=O)[C@@H]2C[C@@H](O)CN2C(=O)[C@@H](NC(=O)C2CN(c3ccc(S(=O)(=O)NC(=O)c4nc(N5CCc6cccc(C(=O)Nc7nc8ccccc8s7)c6C5)ccc4-c4cnn(CC5CCCCC5)c4C)cc3F)C2)C(C)(C)C)cc1 [I-330] | 50 to 75 | 10 to 100 | 1000 to 10000 | < 100 | 
10 | Cc1ncsc1-c1ccc([C@H](C)NC(=O)[C@@H]2C[C@@H](O)CN2C(=O)[C@@H](NC(=O)COCCOCCS(=O)(=O)NC(=O)c2nc(N3CCc4cccc(C(=O)Nc5nc6ccccc6s5)c4C3)ccc2-c2cnn(CC3CCCCC3)c2C)C(C)(C)C)cc1 [I-463] | > 75 | 10 to 100 | 1000 to 10000 | < 100 | 
11 | Cc1ncsc1-c1ccc([C@H](C)NC(=O)[C@@H]2C[C@@H](O)CN2C(=O)[C@H](c2cc(OC3CCN(CCNC(=O)c4nc(N5CCc6cccc(C(=O)Nc7nc8ccccc8s7)c6C5)ccc4-c4cnn(CC5CCCCC5)c4C)CC3)no2)C(C)C)cc1 [I-292] | 50 to 75 | 100 to 500 | 1000 to 10000 | 100 to 1000 | 
12 | Cc1ncsc1-c1ccc([C@H](C)NC(=O)[C@@H]2C[C@@H](O)CN2C(=O)[C@@H](NC(=O)CCNCCS(=O)(=O)NC(=O)c2nc(N3CCc4cccc(C(=O)Nc5nc6cccnc6s5)c4C3)ccc2-c2cnn(CC3CCCCC3)c2C)C(C)(C)C)cc1 [I-376] | > 75 | 10 to 100 | > 10000 | > 3000 | 
13 | Cc1ncsc1-c1ccc([C@H](C)NC(=O)[C@@H]2C[C@@H](O)CN2C(=O)[C@@H](NC(=O)CCCCc2nc(C3CCCN(C(=O)c4nc(N5CCc6cccc(C(=O)Nc7nc8ccccc8s7)c6C5)ccc4-c4cnn(CC5CCCCC5)c4C)C3)no2)C(C)(C)C)cc1 (stereo partly shown) [I-306] | > 75 | 10 to 100 | 1000 to 10000 | < 100 | 
